From patent US9302999B2, “Substituted triazoles as herbicides” (E. I. DU PONT DE NEMOURS AND COMPANY, priority 2012, dated 2016)

Assays:
[1] = test system: wheat (Triticum aestivum); experiment: Test A pre-/postemergence: wheat; format: in vivo
Outline: (§1)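 Rating scale 0–100 (100 = complete control), visual, ~10 days after application in the greenhouse. Applications: preemergence directed soil spray; postemergence at 1–2 leaves.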

[2] = test system: nutsedge, yellow (yellow nutsedge, Cyperus esculentus); experiment: Test C pre-/postemergence: nutsedge, yellow; format: in vivo
Outline: (§2)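 Preemergence on seeds in loam/sand, postemergence on 2–18 cm (1–4-leaf) plants in peat-based medium; compounds in non-phytotoxic solvent with surfactant. After 13–15 days in greenhouse, visual rating versus controls, 0 (no effect) to 100 (complete control).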

[3] = test system: wild oat (Avena fatua); experiment: Test C pre-/postemergence: wild oat; format: in vivo; details: Postemergence
Outline: as §2

[4] = test system: foxtail, giant (giant foxtail, Setaria faberii); experiment: Test A pre-/postemergence: foxtail, giant; format: in vivo
Outline: as §1

[5] = test system: Oilseed Rape; experiment: Test C preemergence: oilseed rape; format: in vivo, Brassica napus; details: 125 g ai/ha, scale 0 to 100, 0 no effect, 100 complete control
[6] = test system: pigweed (Amaranthus retroflexus); experiment: Test C pre-/postemergence: pigweed; format: in vivo
Outline: as §2

[7] = test system: foxtail, giant (giant foxtail, Setaria faberii); experiment: Test C pre-/postemergence: foxtail, giant; format: in vivo
Outline: as §2

[8] = test system: soybean (Glycine max); experiment: Test C pre-/postemergence: soybean; format: in vivo
Outline: as §2

[9] = test system: crabgrass, large (large crabgrass, Digitaria sanguinalis); experiment: Test A pre-/postemergence: crabgrass, large; format: in vivo
Outline: as §1

[10] = test system: pigweed (Amaranthus retroflexus); experiment: Test A pre-/postemergence: pigweed; format: in vivo
Outline: as §1

[11] = test system: Waterhemp; experiment: Test C postemergence: waterhemp; format: in vivo; details: scale 0 to 100 (0 no effect, 100 complete control)
Outline: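 Pot-grown plants in peat/vermiculite medium sprayed postemergence at 2–18 cm height (1- to 4-leaf stage). Kept in greenhouse 13 to 15 days, then visually rated against untreated controls on a 0–100 scale (0 = no effect, 100 = complete control).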

[12] = Postemergence, 125 g ai/ha, 0 to 100 scale, 0 is no effect, 100 is complete control
[13] = Postemergence, 500 g ai/ha, visual rating on 0 to 100 scale (0 no effect, 100 complete control), approximately ten days
[14] = Preemergence, 125 g ai/ha, 0 to 100 scale where 0 is no effect and 100 is complete control
[15] = Preemergence, 500 g ai/ha, 0 to 100 scale (0 no effect, 100 complete control)
[16] = Postemergence, 16 g ai/ha, scale 0 to 100, 0 no effect, 100 complete control
[17] = Postemergence, 31 g ai/ha, scale 0 to 100 (0 no effect, 100 complete control)
[18] = Postemergence, 62 g ai/ha, scale 0 to 100 (0 no effect, 100 complete control)
[19] = Postemergence, 125 g ai/ha, scale 0 to 100, 0 no effect, 100 complete control
[20] = Preemergence, 16 g ai/ha, scale 0 (no effect) to 100 (complete control)
[21] = Preemergence, 31 g ai/ha, scale of 0 to 100, 0 is no effect, 100 is complete control
[22] = Preemergence, 62 g ai/ha, scale of 0 to 100, 0 is no effect, 100 is complete control
[23] = Preemergence, 125 g ai/ha, scale 0 to 100, 0 no effect, 100 complete control
[24] = 31 g ai/ha, scale 0 to 100 (0 no effect, 100 complete control)
[25] = 62 g ai/ha, scale 0 to 100 (0 no effect, 100 complete control)
[26] = 125 g ai/ha, scale 0 to 100, 0 no effect, 100 complete control
[27] = Postemergence, 500 g ai/ha, 0 to 100 scale, 0 is no effect, 100 is complete control
[28] = Postemergence, 250 g ai/ha, scale 0 to 100 (0 no effect, 100 complete control)
[29] = Preemergence, 31 g ai/ha, scale 0 (no effect) to 100 (complete control)
[30] = Preemergence, 250 g ai/ha, scale 0 to 100, 0 no effect, 100 complete control
[31] = 250 g ai/ha, scale 0 to 100 (0 no effect, 100 complete control)
[32] = Postemergence, 250 g ai/ha, scale 0 to 100

FCc1nn(-c2ccc(F)cc2)nc1Oc1ccnc(C(F)(F)F)c1 [Compound 160]
Plant response rating, Wheat [1, 12]: 40
Wheat plant response rating [1, 13]: 50
Plant response rating, Wheat [1, 14]: 30
Plant response rating, Wheat [1, 15]: 50
Plant response rating, Nutsedge, Yellow [2, 16]: 5
Plant response rating, Nutsedge, Yellow [2, 17]: 10
Plant response rating, Nutsedge, Yellow [2, 18]: 10
Plant response rating, Nutsedge, Yellow [2, 19]: 15
Plant response rating, Nutsedge, Yellow [2, 20]: 0
Plant response rating, Nutsedge, Yellow [2, 21]: 0
Plant response rating, Nutsedge, Yellow [2, 22]: 0
Plant response rating, Nutsedge, Yellow [2, 23]: 0
Plant response rating, Oat, Wild ([3]; 16 g ai/ha, scale 0 to 100, 0 no effect, 100 complete control): 15
Plant response rating, Oat, Wild [3, 24]: 30
Plant response rating, Oat, Wild [3, 25]: 45
Plant response rating, Oat, Wild [3, 26]: 60
Plant response rating, Foxtail, Giant [4, 12]: 90
Foxtail, Giant plant response rating [4, 13]: 90
Plant response rating, Foxtail, Giant [4, 14]: 100
Plant response rating, Foxtail, Giant [4, 15]: 100
Plant response rating, Oilseed Rape [5]: 80
Plant response rating, Pigweed [6, 16]: 95
Plant response rating, Pigweed [6, 17]: 95
Plant response rating, Pigweed [6, 18]: 98
Plant response rating, Pigweed [6, 19]: 98
Plant response rating, Pigweed [6, 20]: 90
Plant response rating, Pigweed [6, 21]: 100
Plant response rating, Pigweed [6, 22]: 100
Plant response rating, Pigweed [6, 23]: 100
Plant response rating, Foxtail, Giant [7, 16]: 15
Plant response rating, Foxtail, Giant [7, 17]: 20
Plant response rating, Foxtail, Giant [7, 19]: 75
Plant response rating, Foxtail, Giant [7, 20]: 80
Plant response rating, Foxtail, Giant [7, 21]: 100
Plant response rating, Foxtail, Giant [7, 22]: 100
Plant response rating, Foxtail, Giant [7, 23]: 100
Plant response rating, Soybean [8, 16]: 15
Plant response rating, Soybean [8, 17]: 25
Plant response rating, Soybean [8, 18]: 25
Plant response rating, Soybean [8, 19]: 30
Plant response rating, Soybean [8, 20]: 0
Plant response rating, Soybean [8, 21]: 5
Plant response rating, Soybean [8, 22]: 20
Plant response rating, Soybean [8, 23]: 20
Plant response rating, Crabgrass, Large [9, 12]: 90
Crabgrass, Large plant response rating [9, 13]: 90
Plant response rating, Crabgrass, Large [9, 14]: 100
Plant response rating, Crabgrass, Large [9, 15]: 100
Plant response rating, Pigweed [10, 12]: 100
Pigweed plant response rating [10, 13]: 100
Plant response rating, Pigweed [10, 14]: 100
Plant response rating, Pigweed [10, 15]: 100
Plant response rating, Waterhemp ([11]; 31 g ai/ha): 95
Plant response rating, Waterhemp ([11]; 62 g ai/ha): 98

CCCc1nn(-c2ccc(F)cc2)nc1Oc1ccnc(C(F)(F)F)c1 [Compound 168]
Plant response rating, Wheat [1, 12]: 40
Wheat plant response rating [1, 27]: 50
Plant response rating, Wheat [1, 14]: 40
Plant response rating, Wheat [1, 15]: 60
Plant response rating, Nutsedge, Yellow [2, 17]: 10
Plant response rating, Nutsedge, Yellow [2, 18]: 10
Plant response rating, Nutsedge, Yellow [2, 19]: 15
Plant response rating, Nutsedge, Yellow [2, 28]: 20
Plant response rating, Nutsedge, Yellow [2, 29]: 0
Plant response rating, Nutsedge, Yellow [2, 22]: 0
Plant response rating, Nutsedge, Yellow [2, 23]: 5
Plant response rating, Nutsedge, Yellow [2, 30]: 5
Plant response rating, Oat, Wild [3, 24]: 30
Plant response rating, Oat, Wild [3, 25]: 45
Plant response rating, Oat, Wild [3, 26]: 50
Plant response rating, Oat, Wild [3, 31]: 60
Plant response rating, Foxtail, Giant [4, 12]: 90
Foxtail, Giant plant response rating [4, 27]: 90
Plant response rating, Foxtail, Giant [4, 14]: 100
Plant response rating, Foxtail, Giant [4, 15]: 100
Plant response rating, Oilseed Rape [5]: 100
Plant response rating, Pigweed [6, 17]: 80
Plant response rating, Pigweed [6, 18]: 98
Plant response rating, Pigweed [6, 19]: 98
Plant response rating, Pigweed [6, 28]: 98
Plant response rating, Pigweed [6, 29]: 100
Plant response rating, Pigweed [6, 22]: 100
Plant response rating, Pigweed [6, 23]: 100
Plant response rating, Pigweed [6, 30]: 100
Plant response rating, Foxtail, Giant [7, 17]: 55
Plant response rating, Foxtail, Giant [7, 18]: 65
Plant response rating, Foxtail, Giant [7, 19]: 95
Plant response rating, Foxtail, Giant [7, 32]: 95
Plant response rating, Foxtail, Giant [7, 29]: 100
Plant response rating, Foxtail, Giant [7, 22]: 100
Plant response rating, Foxtail, Giant [7, 23]: 100
Plant response rating, Foxtail, Giant [7, 30]: 100
Plant response rating, Soybean [8, 17]: 30
Plant response rating, Soybean [8, 18]: 35
Plant response rating, Soybean [8, 19]: 60
Plant response rating, Soybean [8, 28]: 60
Plant response rating, Soybean [8, 29]: 5
Plant response rating, Soybean [8, 22]: 10
Plant response rating, Soybean [8, 23]: 10
Plant response rating, Soybean [8, 30]: 35
Plant response rating, Crabgrass, Large [9, 12]: 90
Crabgrass, Large plant response rating [9, 27]: 90
Plant response rating, Crabgrass, Large [9, 14]: 100
Plant response rating, Crabgrass, Large [9, 15]: 100
Plant response rating, Pigweed [10, 12]: 100
Pigweed plant response rating [10, 27]: 100
Plant response rating, Pigweed [10, 14]: 100
Plant response rating, Pigweed [10, 15]: 100
Plant response rating, Waterhemp ([11]; 62 g ai/ha): 90

CCc1nn(-c2ccc(C(F)(F)F)cc2)nc1Oc1ccnc(C(F)(F)F)c1 [Compound 169]
Plant response rating, Wheat [1, 12]: 30
Wheat plant response rating [1, 27]: 40
Plant response rating, Wheat [1, 14]: 20
Plant response rating, Wheat [1, 15]: 50
Plant response rating, Nutsedge, Yellow [2, 17]: 5
Plant response rating, Nutsedge, Yellow [2, 18]: 5
Plant response rating, Nutsedge, Yellow [2, 19]: 10
Plant response rating, Nutsedge, Yellow [2, 28]: 10
Plant response rating, Nutsedge, Yellow [2, 29]: 0
Plant response rating, Nutsedge, Yellow [2, 22]: 5
Plant response rating, Nutsedge, Yellow [2, 23]: 5
Plant response rating, Nutsedge, Yellow [2, 30]: 5
Plant response rating, Oat, Wild [3, 24]: 5
Plant response rating, Oat, Wild [3, 25]: 25
Plant response rating, Oat, Wild [3, 26]: 30
Plant response rating, Oat, Wild [3, 31]: 50
Plant response rating, Foxtail, Giant [4, 12]: 80
Foxtail, Giant plant response rating [4, 27]: 90
Plant response rating, Foxtail, Giant [4, 14]: 100
Plant response rating, Foxtail, Giant [4, 15]: 100
Plant response rating, Oilseed Rape [5]: 100
Plant response rating, Pigweed [6, 17]: 95
Plant response rating, Pigweed [6, 18]: 95
Plant response rating, Pigweed [6, 19]: 100
Plant response rating, Pigweed [6, 28]: 100
Plant response rating, Pigweed [6, 29]: 100
Plant response rating, Pigweed [6, 22]: 100
Plant response rating, Pigweed [6, 23]: 100
Plant response rating, Pigweed [6, 30]: 100
Plant response rating, Foxtail, Giant [7, 17]: 20
Plant response rating, Foxtail, Giant [7, 18]: 65
Plant response rating, Foxtail, Giant [7, 19]: 65
Plant response rating, Foxtail, Giant [7, 32]: 90
Plant response rating, Foxtail, Giant [7, 29]: 100
Plant response rating, Foxtail, Giant [7, 22]: 100
Plant response rating, Foxtail, Giant [7, 23]: 100
Plant response rating, Foxtail, Giant [7, 30]: 100
Plant response rating, Soybean [8, 17]: 30
Plant response rating, Soybean [8, 18]: 30
Plant response rating, Soybean [8, 19]: 50
Plant response rating, Soybean [8, 28]: 55
Plant response rating, Soybean [8, 29]: 0
Plant response rating, Soybean [8, 22]: 5
Plant response rating, Soybean [8, 23]: 10
Plant response rating, Soybean [8, 30]: 30
Plant response rating, Crabgrass, Large [9, 12]: 90
Crabgrass, Large plant response rating [9, 27]: 90
Plant response rating, Crabgrass, Large [9, 14]: 100
Plant response rating, Crabgrass, Large [9, 15]: 100
Plant response rating, Pigweed [10, 12]: 100
Pigweed plant response rating [10, 27]: 100
Plant response rating, Pigweed [10, 14]: 100
Plant response rating, Pigweed [10, 15]: 100
Plant response rating, Waterhemp ([11]; 62 g ai/ha): 80
